Laboratory results reported in patent US20030219476A1, “Liposomal formulation of mitoxantrone” (priority 2000, published 2003).
“Also recorded” adds a separate entry of the source. Counter-ions that a name gives are not always drawn. Like-named read-outs stand apart in the source and are kept apart here.

Key:
male CD2F1 mice [1] = tested on: male CD2F1 mice
Description: Eighty male CD2F1 mice weighing 20-22 g were acclimated for 1 week and randomly separated into 8 groups of ten animals each with 5 animals per cage. On day 0 all groups of animals were injected i.v. in the tail vein with the drug or vehicle control. The volumes administered were varied based on individual animal weights. Mouse weights were recorded for each mouse on alternate days following injection and observation for clinical illness were recorded at least daily.

male CD2F1 mice [2] = tested on: male CD2F1 mice; remark: listed apart in the source
Description: Forty male CD2F1 mice weighing 20-22 g were acclimated for 1 week and randomly separated into 8 groups of five animals each with 5 animals per cage. On day 0 all groups of animals were injected i.v. in the tail vein with the drug or vehicle control and once daily thereafter for a period of 5 days. The volumes administered were varied based on individual animal weights. Mouse weights were recorded for each mouse on alternate days following injection and observations of clinical illness were recorded at least daily.

male CD2F1 mice [3] = tested on: male CD2F1 mice; remark: listed apart in the source
Description: Seventy male CD2F1 mice weighing 20-22 g were acclimated for 1 week and randomly separated into 7 groups of ten animals each with 5 animals per cage. On day 0 all groups of animals were injected i.v. in the tail vein with the drug or vehicle control. The volumes administered were varied based on individual animal weights. Mouse weights were recorded for each mouse on alternate days following injection and observation for clinical illness were recorded at least daily.

in vivo [4] = conditions: male, CD2F1, mouse, plasma, iv, 5 mg/kg
Description: Plasma and tissue samples were analyzed for mitoxantrone by reverse phase HPLC. Plasma samples (0.25 ml) were mixed with 0.5 ml of solution of 0.01 mg/ml hexanesulfonic acid, 0.5 mg/ml ascorbic acid, and 0.25 μg ametantrone as internal standard. After vortexing for 30 sec., 0.5 ml of 0.1 M borate buffer (pH 9.5) and 150 μl of 1 M sodium hydroxide was added and the solution vortexed again for 30 sec. […] The organic layer (9 ml) was separated and evaporated under nitrogen. Samples were reconstituted with 10 μl of mobile phase prior to HPLC analysis. Tissue samples were homogenized in 1 ml of solution containing 20% ascorbic acid in 0.1 M citrate buffer, pH 3.0, and extracted as described above. Mitoxantrone was separated by reverse-phase chromatography (Waters μBondapak® C-18) using a mobile phase of 33% acetonitrile, and 67% 0.16 M ammonium formate buffer, pH 2.7 delivered at a flow rate of 1 ml/min. Mitoxantrone was detected at 600 nm. The limit of sensitivity was 10 ng/ml.
Plasma Pharmacokinetic parameters were assessed by standard methods. The elimination rate constant (K) was calculated from the linear regression analysis of plasma concentration-time curve. The area under the curve (AUC0→∞) was calculated using the linear trapezoidal method with extrapolation of the terminal phase to infinity (Clast/K), where Clast is the last measured concentration. Other parameters calculated were total body clearance (Cl) as Dose/AUC; volume of distribution (Varea)=Cl/K; elimination half-life (t1/2)=0.693/Karea.

male CD2F1 mice [5] = tested on: male CD2F1 mice; remark: listed apart in the source
Description: Thirty male CD2F1 mice weighing 20-22 g were acclimated for 1 week and randomly separated into 6 groups of five animals each with 5 animals per cage. On day 0 all groups of animals were injected i.v. in the tail vein with the drug or vehicle control and once daily thereafter for a period of 5 days. The volumes administered were varied based on individual animal weights. Mouse weights were determined for each mouse on alternate days following injection and observation for clinical illness were recorded at least daily.

[6] = tested on: human hormone-refractory prostate tumor cells (PC-3)
Description: Male Balb/c, nu/nu, 6-8 week old mice were inoculated with 5×10^6 of human hormone-refractory prostate tumor cells (PC-3). Tumor growth was monitored twice a week until the tumor volumes were in the range of […]. Animals were then divided into groups and were treated by i.v. injection via the tail vein with conventional mitoxantrone at doses of 0.625, 1.25, 2.5, and 5 mg/kg once every other day for four days. Doses of mitoxantrone formulated in liposomes were 2.5, 5, 7.5, and 10 mg/kg. Control animals received either normal saline or blank liposomes. The median survival time was calculated and all surviving animals were sacrificed on Day 34.
In these experiments tumor volumes were measured once or twice a week by measuring the three major axes.

L1210 leukemia cells = assay: L1210 ascitic leukemia survival, single dose (Example 14); assay type: in vivo, mice
Description: Murine leukemia cells, L1210 leukemia cells were grown in the peritoneum of CD2F1 mice by three serial propagations (i.p.). Ascites developed within eight days of the last inoculation were used in the following experiments. Cytostatic activities of liposomal and conventional formulations of mitoxantrone against L1210 ascitic leukemia was determined. Animal group weights were determined three times a week and clinically morbid animals were humanely sacrificed. The surviving mice were observed daily for 60 days. Group survival times post i.v. treatment with single or multiple doses of the drug was indicative of the relative anti-tumor potencies of liposomal and conventional mitoxantrone.
Female CD2F1 mice were divided into eight groups of 10 animals and inoculated i.v. with 10,000 L1210 cells. Drug was administered twenty-four hours later. Conventional mitoxantrone was administered at doses of 5 and 10 mg/kg. […] Surviving animals were sacrificed on day 60 of the experiment. Blank liposomes equivalent to the 35, mg/kg dose and normal saline was also administered as controls.

in vivo [7] = conditions: beagle, dog, plasma, iv, 0.26 mg/kg
Description: (§1) Time points analyzed were 0, 5 and 30 min and 1, 2, 4, 8 and 24 h after a single dose administration.

beagle dogs = assay: Repeated-dose i.v. toxicity in beagle dogs (Example 18)
Description: Conventional mitoxantrone was administered to beagle dogs (3/sex/group) at i.v. dosages of 0 (saline), 0.129 or 0.258 mg/kg (2.6 or 5 mg/m^2) on Days 1, 23, 43 and 65. […] Evaluations for compound-related effects were based on clinical observations, body weight, food consumption, ophthalmologic and ECG examination, clinical pathology, plasma drug concentrations, organ weights and gross and microscopic postmortem examinations.

male CD2F1 mice [8] = conditions: 25 mg/kg single i.v.
Description: Twenty male CD2F1 mice weighing 20-22 g were acclimated for 1 week and randomly separated into 4 groups of five animals each with 5 animals per cage. On day 0 all groups of animals were injected i.v. in the tail vein with the drug or vehicle control. The volumes administered were varied based on individual animal weights. Mouse weights were recorded for each mouse on alternate days following injection and observation for clinical illness were recorded at least daily.

[9] = Plasma pharmacokinetics in dogs (Example 17)
Description: as §1

[10] = conventional 5 mg/kg, liposomal 10 mg/kg, daily x5

**Q.** Which results are given for `O=C1c2c(O)ccc(O)c2C(=O)c2c(NCCNCCO)ccc(NCCNCCO)c21` [conventional mitoxantrone, mitoxantrone hydrochloride]?
**A.** tissue concentration, kidneys (5 mg/kg single i.v.): ~40 µg/g; tissue concentration, lungs (5 mg/kg single i.v.): approximately 20 μg/g; heart tissue concentration (5 mg/kg single i.v., 5 and 15 minutes): approximately 10 μg/g; heart concentration (peak) (5 mg/kg single i.v., 5 minutes): 11 µg/g; liver concentration after gradual decrease (5 mg/kg single i.v., end of time course): ~2 µg/g; liver concentration, initial (5 mg/kg single i.v., start of time course): approximately 19 μg/g; heart, lung and kidney concentrations, comparison of formulations (all time points, 5 mg/kg i.v.): higher; weight loss (male CD2F1 mice [1]; 10 mg/kg single i.v., by day 10, then gradual recovery): 20%; morbidity (male CD2F1 mice [1]; 15 mg/kg single i.v. dose): 100%; weight loss (male CD2F1 mice [1]; 15 mg/kg single i.v., by day 9/10): about 35%; ALT (male CD2F1 mice [1]; 15 mg/kg single i.v., day 10, hydrochloride): Clinically significant elevations in ALT; also recorded: significant increases in ALT; BUN (male CD2F1 mice [1]; 15 mg/kg single i.v., two mice): modest elevations in BUN; histopathology (male CD2F1 mice [1]; single i.v. dose, spleen and bone marrow): compound effects on hematopoietic and lymphoid tissues of the spleen and bone marrow; body weight course (remaining groups) (male CD2F1 mice [1]; single i.v., conventional 5 mg/kg, liposomal 5, 10, 15 mg/kg): gained weight steadily; animals that died (male CD2F1 mice [2]; 5 and 7.5 mg/kg daily x5): all of the animals; progressive weight loss (male CD2F1 mice [2]; 5 and 7.5 mg/kg daily x5, by day 7): about 25%; hepatocellular vacuolar degeneration (male CD2F1 mice [2]; 5 or 7.5 mg/kg daily x5, several mice): Some hepatocellular vacuolar degeneration; leukopenia in moribund-sacrificed mice (male CD2F1 mice [2]; conventional 5, 7.5 mg/kg, liposomal 7.5 mg/kg, daily x5): marked, clinically significant, compound related leukopenia; clinical signs (male CD2F1 mice [2]; day 6, conventional 2.5, 5, 7.5 mg/kg, liposomal 7.5 mg/kg, daily x5): ruffled fur and hunching behavior; morbidity or mortality (male CD2F1 mice [2]; liposomal any dose (2.5-7.5 mg/kg), conventional […], daily x5): no morbidity or mortality; initial weight loss (male CD2F1 mice [3]; 10 mg/kg single i.v., gradual recovery): 13%; morbidity (male CD2F1 mice [3]; 25 mg/kg single i.v.): 100%; ALT activities (male CD2F1 mice [3]; day 3, one mouse each: conventional 25 mg/kg, liposomal 35 mg/kg): modest increases in ALT activities; AUC (in vivo [4]): 140 ng·h/mL; Cmax (in vivo [4]): 410 ng/mL; Vd (in vivo [4]): 5.5 L/kg; clearance (in vivo [4]): 600 mL/min/kg; half-life (in vivo [4]): 6.6 min; lethality (mice tested) (male CD2F1 mice [5]; 5 mg/kg daily x5): 100%; progressive weight loss (male CD2F1 mice [5]; 5 mg/kg daily x5, by day 9): about 35%; acute liver injury (ALT, AST, bilirubin) (male CD2F1 mice [5]; by day 8, conventional 5 mg/kg/day vs liposomal 10 mg/kg/day): roughly equivalent acute liver injury; AST and ALT in moribund sacrificed animals (male CD2F1 mice [5]; [10]): marked elevations in AST and ALT; leukopenia in moribund animals (male CD2F1 mice [5]; [10]): marked leukopenia; mice with bilirubin concentration greater than in control mice (male CD2F1 mice [5]; [10]): 3 of the 4; clinical signs (male CD2F1 mice [5]; conventional 2.5, 5 mg/kg, liposomal 10 mg/kg, daily x5): ruffled fur and hunching behavior; survival by day 34 ([6]; 0.625 and 1.25 mg/kg i.v. once every other day): 100%; survival by day 34 ([6]; 2.5 and 5 mg/kg i.v. once every other day): no animals; toxicity in tumor-bearing mice ([6]; in vivo): Severe toxicity; median survival (L1210 leukemia cells; 5 mg/kg single i.v., 24 h after 10,000 L1210 cells i.v.): 12 days; animals alive at day 60 (L1210 leukemia cells; 10 mg/kg single i.v.): 2/10; median survival time (L1210 leukemia cells; 10 mg/kg single i.v.): 20 days; Cmax (in vivo [7]; female): 60 ng/mL; Cmax (in vivo [7]; male): 84 ng/mL; clearance (in vivo [7]; male): 89 mL/min/kg; half-life (in vivo [7]; male): 21.6 min; hematology (beagle dogs; 0.129 and 0.258 mg/kg, 4 to 10 days following each dose cycle, dose related): leukopenia and thrombocytopenia; ECG parameters (beagle dogs; any examination time): no changes in ECG parameters; food consumption (beagle dogs; any groups): no changes in food consumption; coagulation or clinical chemistry parameters (beagle dogs; any of the dosage groups): No changes; anemia (beagle dogs; conventional: all animals, liposomal: female dogs): Anemia did not occur; body weight (beagle dogs; conventional: males at 0.258 mg/kg, liposomal: all dose groups, Days 1, 23, 43, 65): lost weight; morbidity (male CD2F1 mice [8]): 100%; V ([9]; 0.26 mg/kg i.v., male dogs, mean): 2.8 L/kg; time point at which plasma concentrations could not be measured ([9]; high dose (0.26 mg/kg)): 30 min
